Assay results reported in publication PMC10186300 (Scientific Reports, 2023).
“And” between values parts separate entries of the source, which are not always exact repeats. Equal values may be shown once. Residues, ends and D or L forms follow the SMILES beside them. *: point of attachment. Dansyl = CN(C)c1cccc2c(S(=O)(=O)*)cccc12

Legend:
[1] = molecular target: T1, PDZ2 domain of ZO1 (Homo sapiens, UniProt Q07157, F207W); experiment: biochemical; assay type: binding
[2] = molecular target: T1, PDZ2 domain of ZO1; experiment: biochemical; assay type: binding; settings: pH 7

T1 sequence (Q07157 186-264 F207W limits assumed): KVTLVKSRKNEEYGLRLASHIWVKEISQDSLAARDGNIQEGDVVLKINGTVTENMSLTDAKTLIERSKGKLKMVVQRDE

| Molecule | Kd [1] | koff [2] | change in fluorescence upon binding (negative control) ([1]; pH 7) |
| --- | --- | --- | --- |
| CC(C)C[C@H](NC(=O)[C@H](CC(=O)O)NC(=O)[C@@H]1CCCN1C(=O)[C@@H](NC(=O)[C@H](CCCNC(=N)N)NC(=O)[C@H](CO)NC(=O)[C@H](CO)NC(=O)[C@H](CC(N)=O)NS(=O)(=O)c1cccc2c(N(C)C)cccc12)C(C)C)C(=O)N[C@@H](CC(C)C)C(=O)N[C@H](C(=O)O)C(C)C [SARS-CoV-2 E peptide] (Dansyl-NSSRVPDLLV-OH) | 15.8 µM and 17.4 µM and 15.2 µM | 9.5 s⁻¹ and 8.7 ± 0.2 s⁻¹ and 6.8 ± 0.1 s⁻¹ and 9.1 ± 0.2 s⁻¹ |  |
| ENVGLMQQQK [reference compound] |  |  | no change in fluorescence upon binding |
| CC(C)C[C@H](NC(=O)[C@@H]1CCCN1C(=O)[C@@H]1CCCN1C(=O)[C@H](CCCCN)NC(=O)[C@H](CO)NS(=O)(=O)c1cccc2c(N(C)C)cccc12)C(=O)N1CCC[C@H]1C(=O)N1CCC[C@H]1C(=O)N[C@@H](CC(=O)O)C(=O)N[C@@H](CCC(=O)O)C(=O)N[C@@H](Cc1c[nH]c2ccccc12)C(=O)N[C@H](C(=O)O)C(C)C [MERS-CoV E peptide] (Dansyl-SKPPLPPDEWV-OH) | 14 ± 1 µM | 154 ± 3 s⁻¹ |  |
| CC(C)C[C@H](NC(=O)[C@H](CC(=O)O)NC(=O)[C@@H]1CCCN1C(=O)[C@@H](NC(=O)CNC(=O)[C@H](CCC(=O)O)NC(=O)[C@H](CO)NC(=O)[C@H](CO)NC(=O)[C@H](CC(N)=O)NS(=O)(=O)c1cccc2c(N(C)C)cccc12)C(C)C)C(=O)N[C@@H](CC(C)C)C(=O)N[C@H](C(=O)O)C(C)C [SARS-CoV E peptide] (Dansyl-NSSEGVPDLLV-OH) | 4.7 µM and 5 µM and 8.6 µM | 9 s⁻¹ and 7.0 ± 0.1 s⁻¹ and 6.9 ± 0.1 s⁻¹ and 6.2 ± 0.1 s⁻¹ |  |
